The source of these data is US12187721B2, “Protein tyrosine phosphatase inhibitors” (Array BioPharma Inc., priority 2018, dated 2025).

Counter-ions that a name gives are not always drawn.

The test system of experiment [1] is ERK1/2 (Thr202/Tyr204) phosphorylation in KYSE520 cells. Briefly: Cellular Phospho-p44/42 MAPK (Erk 1/2) (Thr202/Tyr204) Assay (In-Cell Western). The settings on record: Homo sapiens, KYSE-520, 1 h, read-out: Biological Example 2 IC50 (nM). The experiment is classed as cell-based. The method, then: KYSE520 cells were obtained from DSMZ and grown in RPMI supplemented with 10% fetal bovine serum, pennicillin/streptomycin, 2 mM L-alanyl-L-glutamine dipeptide in 0.85% NaCl (Glutamax™), non-essential amino acids, and sodium pyruvate. Cells were plated in 96-well plates at 30,000 cells/well and allowed to attach overnight at 37° C./5% CO2. Cells were treated with compounds prepared as a 10-point, 1:3 dilution series (range: 20 μM-1 nM), with a final DMSO concentration of 0.5%. After 1 hour incubation, cells were fixed in 3.7% formaldehyde in Dulbecco's phosphate-buffered saline (“dPBS”) at room temperature for 20 minutes. Cells were then washed with dPBS and permeabilized in 100% MeOH at room temperature for 10 minutes. Following permeabilization, cells were washed in dPBS and incubated in LI-COR Blocking Buffer (LI-COR Biosciences, Cat #927-40000) for 1 hour or longer. Plates were then incubated with an antibody specific for the MEK-dependent ERK1/2 phosphorylation sites, threonine 202 and tyrosine 204 (Cell Signaling Technologies; Cat #9101), downstream of SHP2 in the MAP kinase signal transduction pathway, as well as GAPDH (Millipore; Cat #MAB374). pErk1/2 (Thr202/Tyr204) antibody was diluted in LI-COR blocking buffer containing 0.05% polysorbate-20 (Tween-20) at 1:250; GAPDH was diluted at 1:2,500. The plates were incubated overnight at 4° C. After washing with PBS/0.05% Tween-20, the cells were incubated with fluorescently-labeled secondary antibodies (Anti-rabbit-Alexa Flour680, Invitrogen Cat #A21109; Anti-mouse-IRDye800CW, Li-cor Bioscieces Cat #926-32210, both at 1:1000 dilution) for 1 hour. Cells were then washed, as above, and analyzed for fluorescence at both 680 nm and 800 nm wavelengths using the Aerius Infrared Imaging System (LI-COR Biosciences, Model 9250). Phosphorylated Erk1/2 (Thr202/Tyr204) signal was normalized to GAPDH signal for each well. IC50 values were calculated from the normalized values using a 4-parameter fit in BioAssay software. […] The reported IC50 in Table 2 may be from a single assay or the mean of multiple assays.

For experiment [2], the target named is T1, full-length SHP2 (His6-tagged SHP2(2-527)) (Homo sapiens, UniProt Q06124).
T1 construct: His6-tagged SHP2(2-527); His6; made in house; host or cells: E. coli
Briefly: SHP2 Enzymatic Assay (fluorescence intensity kinetic assay, DiFMUP hydrolysis). It is filed as biochemical. An outline of the steps: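 1 nM His6-SHP2(2-527), activated by 1 μM bis-phosphopeptide, hydrolysed 50 μM DiFMUP in 25 mM HEPES pH 7.4 with 1 mM DTT, 50 mM KCl and 2% DMSO. DiFMU fluorescence (Ex 355/Em 460 nm) was read kinetically for 15 min at ambient temperature.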

T1 sequence (Q06124 2-527): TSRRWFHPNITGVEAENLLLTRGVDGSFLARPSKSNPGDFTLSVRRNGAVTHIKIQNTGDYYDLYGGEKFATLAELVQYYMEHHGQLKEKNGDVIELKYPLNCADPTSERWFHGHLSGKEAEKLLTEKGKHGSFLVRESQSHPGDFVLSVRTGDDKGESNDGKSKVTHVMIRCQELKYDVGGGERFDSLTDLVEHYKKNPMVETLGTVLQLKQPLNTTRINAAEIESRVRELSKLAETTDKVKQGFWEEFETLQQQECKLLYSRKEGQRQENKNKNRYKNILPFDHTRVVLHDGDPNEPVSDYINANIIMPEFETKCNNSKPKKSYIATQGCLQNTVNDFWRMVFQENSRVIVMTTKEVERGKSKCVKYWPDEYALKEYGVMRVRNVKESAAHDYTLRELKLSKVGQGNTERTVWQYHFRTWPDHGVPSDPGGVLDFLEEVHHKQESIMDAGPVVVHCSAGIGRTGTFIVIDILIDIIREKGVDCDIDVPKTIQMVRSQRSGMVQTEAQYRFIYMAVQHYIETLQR

For orientation: IC50 means the midpoint of a concentration-inhibition curve. Take `C[C@@H]1OCC2(CCN(c3cnc4nc(Sc5ccnc(NCCO)c5Cl)ccc4n3)CC2)[C@@H]1N` [Example 185, 2-((4-((2-((3S,4S)-4-amino-3-methyl-2-oxa-8-azaspiro[4.5]decan-8-yl)pyrido[2,3-b]pyrazin-6-yl)thio)-3-chloropyridin-2-yl)amino)ethan-1-ol]: the IC50 in experiment [1] was found to be 166 nM; in experiment [2] it was 408 nM.

In the case of `N[C@@H]1c2cccnc2CC12CCN(c1cnc3nc(Sc4ccnc(N5CC[C@H](CO)C5)c4Cl)ccc3n1)CC2` [Example 210, ((S)-1-(4-((2-((S)-5-amino-5,7-dihydrospiro[cyclopenta[b]pyridine-6,4′-piperidin]-1′-yl)pyrido[2,3-b]pyrazin-6-yl)thio)-3-chloropyridin-2-yl)pyrrolidin-3-yl)methanol], the IC50 in experiment [1] was found to be 16 nM; in experiment [2] it was 63 nM.

Regarding `Nc1nccc(Sc2ccc3nc(N4CC5CC(C4)N5)cnc3n2)c1Cl` [Example 200, 4-((2-(3,6-diazabicyclo[3.1.1]heptan-3-yl)pyrido[2,3-b]pyrazin-6-yl)thio)-3-chloropyridin-2-amine], the results for the IC50 in experiment [1] and in experiment [2] were 122 nM and 48 nM, respectively.

As to `CNc1nccc(Sc2ccc3nc(N4CCC5(CC4)CO[C@@H](C)[C@H]5N)cnc3n2)c1Cl` [Example 33, (3S,4S)-8-(6-((3-chloro-2-(methylamino)pyridin-4-yl)thio)pyrido[2,3-b]pyrazin-2-yl)-3-methyl-2-oxa-8-azaspiro[4.5]decan-4-amine], the figures for the IC50 in experiment [1] and in experiment [2] were 80 nM and 100 nM, respectively.

`Cc1nccc(Sc2ccc3nc(N4[C@H]5CC[C@H]4CC(N)C5)cnc3n2)c1Cl` (stereo partly drawn) [Example 67, (1R,3s,5S)-8-(6-((3-chloro-2-methylpyridin-4-yl)thio)pyrido[2,3-b]pyrazin-2-yl)-8-azabicyclo[3.2.1]octan-3-amine dihydrochloride]: the IC50 came to 48 nM in experiment [1] and 42 nM in experiment [2].
